The values below come from ChEMBL document CHEMBL1139228, “Saliniketals A and B, bicyclic polyketides from the marine actinomycete Salinispora arenicola” (J Nat Prod, 2007).

Test [1] can be described thus: Inhibition of DNA dependent RNA polymerase in prokaryotes.
Test [2] concerns the target T1, Ornithine decarboxylase (Homo sapiens) (UniProt P11926).
T1 sequence (whole entry): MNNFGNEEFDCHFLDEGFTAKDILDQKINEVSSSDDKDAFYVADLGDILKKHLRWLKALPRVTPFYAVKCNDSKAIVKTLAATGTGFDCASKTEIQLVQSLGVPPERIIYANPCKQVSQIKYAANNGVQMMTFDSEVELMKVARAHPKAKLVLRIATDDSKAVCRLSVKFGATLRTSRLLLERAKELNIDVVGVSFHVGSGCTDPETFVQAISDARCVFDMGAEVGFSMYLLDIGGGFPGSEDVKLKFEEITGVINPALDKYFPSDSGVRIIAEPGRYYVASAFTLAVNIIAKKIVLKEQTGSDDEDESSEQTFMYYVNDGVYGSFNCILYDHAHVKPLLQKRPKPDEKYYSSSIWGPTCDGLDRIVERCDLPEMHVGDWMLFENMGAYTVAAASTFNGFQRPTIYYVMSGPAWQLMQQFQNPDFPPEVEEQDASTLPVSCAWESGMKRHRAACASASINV
The experiment in a line: Inhibition of ornithine decarboxylase upto 1 mM.

Test [3] deals with T1, Ornithine decarboxylase (Homo sapiens). The experiment in a line: Inhibition of ornithine decarboxylase induction expressed in T24 cells. The test is classed as cell-based. Conditions: T-24.

Active and inactive are the calls of the source. The rule behind the calls is not given here.

With `CO[C@H]1/C=C/O[C@@]2(C)Oc3c(C)c(O)c4c(O)c(cc(O)c4c3C2=O)NC(=O)/C(C)=C\C=C\[C@H](C)[C@H](O)[C@@H](C)[C@@H](O)[C@@H](C)[C@H](OC(C)=O)[C@@H]1C`, in test [1], the outcome was Active.
`C[C@H]([C@H](O)[C@H](C)[C@@H](O)[C@@H](C)/C=C/C=C(/CO)C(N)=O)[C@@H]1O[C@@]2(C)CC[C@@H](O2)[C@H]1C`: the result in test [2] and in test [3] was inactive.
Take `C/C(=C/C=C/[C@H](C)[C@H](O)[C@@H](C)[C@@H](O)[C@@H](C)[C@@H]1O[C@@]2(C)CC[C@@H](O2)[C@H]1C)C(N)=O`: the outcome in test [2] and in test [3] was inactive.
